Assay results published in PMC12122562, “Phase 1 studies of the indenoisoquinolines LMP776 and LMP744 in patients with solid tumors and lymphomas” (Cancer Chemotherapy and Pharmacology, 2025).

Molecular target: T1, TOP1cc (Homo sapiens, UniProt P11387)
T1 construct: paired pre-treatment and on-treatment tumor biopsies (C1D2, 2–4 h after dosing) from 6 patients receiving LMP744 at the MTD; from tissue; host or cells: core needle tumor biopsies from patients (LMP744 expansion cohort)
T1 sequence (P11387 2-765 limits assumed): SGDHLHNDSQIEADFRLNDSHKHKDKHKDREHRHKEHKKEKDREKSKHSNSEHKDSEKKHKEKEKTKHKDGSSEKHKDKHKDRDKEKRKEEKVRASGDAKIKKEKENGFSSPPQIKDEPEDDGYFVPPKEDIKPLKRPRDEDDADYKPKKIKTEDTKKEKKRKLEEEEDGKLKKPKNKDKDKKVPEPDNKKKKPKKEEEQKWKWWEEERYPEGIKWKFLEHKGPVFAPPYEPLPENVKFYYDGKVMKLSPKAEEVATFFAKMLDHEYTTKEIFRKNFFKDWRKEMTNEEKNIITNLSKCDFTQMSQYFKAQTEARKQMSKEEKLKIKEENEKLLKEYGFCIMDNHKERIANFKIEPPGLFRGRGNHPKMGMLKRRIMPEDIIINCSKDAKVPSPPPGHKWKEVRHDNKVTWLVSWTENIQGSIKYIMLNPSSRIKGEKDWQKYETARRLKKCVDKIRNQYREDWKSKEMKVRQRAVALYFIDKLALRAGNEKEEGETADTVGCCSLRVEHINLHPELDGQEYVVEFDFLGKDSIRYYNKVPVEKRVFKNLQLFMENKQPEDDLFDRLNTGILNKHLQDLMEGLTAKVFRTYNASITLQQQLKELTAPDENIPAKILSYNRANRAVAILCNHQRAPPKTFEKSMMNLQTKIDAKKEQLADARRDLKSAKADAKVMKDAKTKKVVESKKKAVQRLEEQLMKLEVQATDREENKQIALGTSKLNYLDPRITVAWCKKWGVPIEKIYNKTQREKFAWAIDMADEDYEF
Assay: qIF of paired tumor biopsies: TOP1cc foci
Type: in vivo
Details: for TOP1cc: C1D2
Source text: The LMP744 protocol collected pre-treatment (baseline) and on-treatment paired biopsies from patients in the expansion cohort. Core needle tumor biopsies (18-gauge) were collected and flash-frozen at point of collection per NCI SOPs (https://dctd.cancer.gov/ResearchResources/biomarkers/docs/par/SOP340507_Biopsy_Frozen.pdf) as described to preserve labile post-translational modifications such as phosphorylation. Biopsy pairs were thawed in formalin, fixed in paraffin embedded together with control tissues following NCI SOP340550 (https://dctd.cancer.gov/ResearchResources/biomarkers/DDR3/SOP340550_Biopsy_Section_Testis_Jejunum_Controls.pdf). TOP1 and TOP1cc were measured with a cocktail containing custom-conjugated rabbit monoclonal antibody anti-TOP1-DIG (Abcam, EPR5376 (2)) and mouse monoclonal antibody anti-TOP1cc (clone 1.1A [34, 35], EMD Millipore) that were detected with reporter secondary antibodies AlexaFluor-647 IgG fraction monoclonal mouse anti-digoxin (Jackson ImmunoResearch) and goat/anti-mouse AlexaFluor-488, respectively. Phosphorylated KAP1 (pKAP1, phosphorylated at S824) was measured using custom-conjugated pKAP1-pS824-DNP (Abcam, EPR5248) and detected with AlexaFluor-488 conjugated with anti-dinitrophenyl-KLH rabbit IgG Antibody Fraction (DNP-488, ThermoFisher). […] TOP1, γH2AX, pNBS1, and pKAP1 were measured as the percentage of DAPI-stained tumor cell nuclear area that was positive for the biomarker (% NAP); RAD51 [19] and TOP1cc was measured as a function of the percentage of nuclei with ≥ 5 foci (RAD51) or ≥ 19 foci (TOP1cc). Apoptosis was measured using a validated IFA of tumor cells positive for both cCasp3 blebbing in the cytoplasm and γH2AX in the nucleus. Anti-SLFN11 rabbit monoclonal antibody (Cell Signaling Technology, clone D8W1B) was detected by immunohistochemistry (IHC) using Bond Polymer Detection kit (Leica) and scanned in 20X widefield Aperio (Leica), and the distribution of staining intensity of tumor cell nuclei graded as 0, 1 + , 2 + or 3 + was converted into an H-score. […]

Compound: COc1cc2c3c(n(CCCNCCO)c(=O)c2cc1OC)-c1cc2c(cc1C3=O)OCO2 [LMP744]
- TOP1cc, change in the biopsy cohort (6 patients at MTD, P = 0.1373): no significant changes
- TOP1cc (patient 29, MTD): neither biomarker changed with treatment
- TOP1cc (patient 31, MTD): decreased nearly to background levels
